Experimental findings from patent US12286618B2, “Lactic acid bacteria” (priority 2018, dated 2025) are described below.

The target of this experiment is Streptococcus thermophilus glucokinase (GlcK) DGCC7710 variant E275K, strain DSM32587 (DGCC12534), SEQ ID NO: 22 (Streptococcus thermophilus, UniProt Q5M4Y5, E275K). The settings on record: substrate glucose (0, 5, 10, 15, 20 mM); 1 mM ATP; pH 7.2; 30° C.; crude extract; mean of three independent experiments.
Streptococcus thermophilus glucokinase (GlcK) DGCC7710 variant E275K, strain DSM32587 (DGCC12534), SEQ ID NO: 22, sequence (Q5M4Y5 entry or part of it E275K): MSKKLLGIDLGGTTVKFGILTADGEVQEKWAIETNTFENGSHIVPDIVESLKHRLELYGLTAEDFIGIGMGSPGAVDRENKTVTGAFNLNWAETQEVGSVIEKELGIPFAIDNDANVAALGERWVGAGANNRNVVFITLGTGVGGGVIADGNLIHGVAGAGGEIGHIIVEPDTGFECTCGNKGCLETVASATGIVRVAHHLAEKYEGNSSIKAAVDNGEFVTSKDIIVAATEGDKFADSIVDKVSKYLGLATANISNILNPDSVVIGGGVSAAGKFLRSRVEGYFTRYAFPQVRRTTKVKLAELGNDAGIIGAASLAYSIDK

Procedure: A fresh overnight culture of the Streptococcus thermophilus strain to be assayed in M17 containing 30 g/L lactose is obtained and used to inoculate at 1% (vol/vol) 10 ml of fresh M17 30 g/L lactose. Cells are harvested by centrifugation (6000 g, 10 min, 4° C.) at a 600 nm optical density (OD600) of 0.8+/−0.2, washed in 5 ml cold GLCK buffer (5 mM MgCl2, 10 mM K2HPO4/KH2PO4 [pH 7.2]), and resuspended in 500 μl cold GLCK buffer. EDTA-free protease inhibitors “cOmplete™” (Roche, supplier reference 04693132001) is added in GLCK buffer as described by the provider. […] Total protein content is determined by using the FLUKA Protein Quantification Kit-Rapid (ref 51254). The glucokinase activity in the cell extracts is determined spectrophotometrically by a glucose-6-phosphate dehydrogenase (G-6PDH, EC1.1.1.49): NADPH-coupled assay (Porter et al., 1982), essentially as described by Pool et al. (2006). […] The optical density at 340 nm is measured for 5 minutes by using a Synergy HT multi-detection microplate reader (BIO-TEK). […]
A fresh overnight culture of a Streptococcus thermophilus strain in M17 containing 30 g/L lactose was obtained and used to inoculate at 1% (vol/vol) 10 ml of fresh M17 30 g/L lactose. […] Total protein content was determined by using the FLUKA Protein Quantification Kit-Rapid (ref 51254). […]

With `OC[C@H]1OC(O)[C@H](O)[C@@H](O)[C@@H]1O` (stereo partly shown) [glucose], the “Vmax Glucokinase” value is listed as 914 U/g total protein extract.
